Laboratory results: patent US11351173B2, “Substituted pyrrolo[1,2-a]pyrimidines and their use in the treatment of medical disorders” (Bial—R&D Investments, S.A., priority 2014, dated 2022)
≈ marks a conversion by molar mass, not a printed value.

Experiments:
[1] = Compound solubility in water; settings: water; for solubility: Compound Solubility in Water
[2] = target: T1, glucocerebrosidase (Gcase) (Homo sapiens, UniProt P04062); experiment: Glucocerebrosidase (Gcase) activation assay, 4-methylumbelliferyl-beta-D-glucopyranoside substrate, fluorescence readout; type: biochemical; settings: for activation at 0.1 µM / Percent Gcase Activation, 0.1 μM Test Compound: test compound at 0.1 μM; for activation at 0.1 µM: read-out: Percent Gcase Activation, 0.1 μM Test Compound; for activation at 1 µM / Percent Gcase Activation, 1 μM Test Compound: test compound at 1.0 μM; for activation at 1 µM: read-out: Percent Gcase Activation, 1 μM Test Compound
T1 construct: micellar solution containing 10 nM GCase and 100 nM saposin C
T1 sequence (P04062 40-536): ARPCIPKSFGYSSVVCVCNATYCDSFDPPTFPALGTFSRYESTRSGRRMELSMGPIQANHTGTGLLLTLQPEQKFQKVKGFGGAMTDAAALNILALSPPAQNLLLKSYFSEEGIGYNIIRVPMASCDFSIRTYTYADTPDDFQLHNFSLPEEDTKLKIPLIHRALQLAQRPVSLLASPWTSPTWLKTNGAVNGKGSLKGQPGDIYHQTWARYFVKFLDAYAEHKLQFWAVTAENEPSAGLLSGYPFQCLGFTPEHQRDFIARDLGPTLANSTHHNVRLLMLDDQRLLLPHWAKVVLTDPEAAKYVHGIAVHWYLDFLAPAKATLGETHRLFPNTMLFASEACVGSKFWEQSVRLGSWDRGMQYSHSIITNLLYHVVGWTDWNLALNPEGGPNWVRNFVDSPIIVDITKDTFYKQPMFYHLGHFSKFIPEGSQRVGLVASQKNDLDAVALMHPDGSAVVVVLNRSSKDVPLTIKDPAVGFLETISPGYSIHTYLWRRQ
Method: The ability of exemplary compounds to activate glucocerebrosidase (Gcase) was measured.
A 484 μL aliquot of a 1.0 mg/mL solution of phosphatidylserine (PS) (Sigma P7769) in chloroform was evaporated under a stream of nitrogen for 1 hour. The lipid film was dissolved over 4 minutes of vigorous vortexing in 40 mL of 176 mM K2HPO4/50 mM citric acid (pH 4.7) containing 7.5 μL of triton X-100, resulting in a mixed micellar preparation with a composition of 0.32 mM triton and 0.37 mol % PS. 4-Methylumbelliferyl-beta-D-glucopyranoside (ACROS-337025000) was dissolved in the micellar solution to a final concentration of 2 mM for use as the reaction substrate.
Test compounds were diluted to the desired concentrations with dimethylsulfoxide (DMSO) from 10 mM stocks, and 0.41 μL of the DMSO compound mixture was added to 100 μL of micellar solution containing 10 nM GCase and 100 nM saposin C (Enzo ALX-201-262-C050). Pre-incubation was allowed to occur for 30 minutes at room temperature, after which the reaction was initiated by combining 25 μL of substrate solution with 25 μL of compound/GCase/saposin mixture. The reaction proceeded for 15 minutes at room temperature and was stopped by adding 150 μL of 1M glycine, pH 12.5. The endpoint of the reaction was monitored by measuring fluorescence intensity (excitation: 365 nm; emission: 440 nm) on a SpectraMax i3 instrument (Molecular Devices). Test compounds were screened at 1.0 and 0.1 μM final concentration, and subsequent 8-point dose response curves were obtained using 3-fold dilutions from a maximum final concentration of 5 μM.

Row | solubility [1] | activation at 0.1 µM [2] | activation at 1 µM [2] | solubility ([1]; in water) | Percent Gcase Activation, 0.1 μM Test Compound [2] | Compound Solubility in Water [1] | Percent Gcase Activation, 1 μM Test Compound [2] | Compound
1 | – | – | – | 0.06 µg/mL (≈ 0.174 µM) | *** (greater than 20% Gcase activation) | – | – | Cc1cc(C)n2ccc(C(=O)Nc3ccc(-c4cnn(C)c4)cc3)c2n1 [III-278]
2 | 0.1 µg/mL (≈ 0.289 µM) | > 20% | > 60% | – | – | – | – | Cc1cc(C)n2ccc(C(=O)Nc3ccc(-c4ncco4)cc3C)c2n1 [III-150]
3 | – | > 20% | > 60% | 1.5 µg/mL (≈ 4.42 µM) | – | – | – | Cc1cc(C)n2ccc(C(=O)NC3CCOc4c(F)cccc43)c2n1 (stereo not shown) [III-224]
4 | 0.7 µg/mL (≈ 2.09 µM) | < 10% | 30 to 60% | – | – | – | – | COCC#Cc1ccc(NC(=O)c2ccn3c(C)cc(C)nc23)cn1 [III-18]
5 | 1.6 µg/mL (≈ 5.21 µM) | < 10% | 30 to 60% | – | – | – | – | Cc1cc(C)n2ccc(C(=O)NC3CCC(F)(F)CC3)c2n1 [III-92]
6 | 0.01 µg/mL (≈ 0.0292 µM) | 10 to 20% | 30 to 60% | – | – | – | – | Cc1cc(C)n2ccc(C(=O)Nc3ccc(-c4ccncc4)cc3)c2n1 [III-11]
7 | – | < 10% | < 30% | 15.7 µg/mL (≈ 49 µM) | – | – | – | Cc1cc(C)n2ccc(C(=O)NC3CCCc4ccncc43)c2n1 (stereo not shown) [III-227]
8 | – | – | – | – | * (less than 10% Gcase activation) | 17.4 µg/mL | + (less than 30% Gcase activation) | Cc1cc(C)n2ccc(C(=O)NC3CCC4(CCCO4)CC3)c2n1 (stereo not shown) [III-142]
9 | – | – | – | – | * (less than 10% Gcase activation) | 10.4 µg/mL | +++ (Gcase activation greater than 60%) | CCCCCO[C@@H]1CC[C@H](NC(=O)c2ccn3c(C)cc(C)nc23)C1 [III-180]
10 | – | 10 to 20% | > 60% | 0.3 µg/mL (≈ 0.982 µM) | – | – | – | Cc1cc(C)n2ccc(C(=O)NC3Cc4ccccc4C3)c2n1 [III-215]
11 | – | < 10% | 30 to 60% | 0.1 µg/mL (≈ 0.248 µM) | – | – | – | Cc1cc(C)n2ccc(C(=O)Nc3ccc4c(c3)C(Oc3nnc(C)o3)CC4)c2n1 (stereo not shown) [III-221]
12 | – | – | – | – | * (less than 10% Gcase activation) | 1.4 µg/mL | +++ (Gcase activation greater than 60%) | Cc1cc(C)n2ccc(C(=O)NC3CCCC34CCCCO4)c2n1 (stereo not shown) [III-139]
13 | – | – | – | – | *** (greater than 20% Gcase activation) | 1.0 µg/mL | +++ (Gcase activation greater than 60%) | Cc1cc(C)n2ccc(C(=O)NC3CCC(c4cccs4)CC3)c2n1 (stereo not shown) [III-188]
14 | 7 µg/mL (≈ 20.6 µM) | > 20% | > 60% | – | – | – | – | Cc1cc(C)n2ccc(C(=O)NC3CCOc4cccc(F)c43)c2n1 (stereo not shown) [III-195]
15 | – | > 20% | > 60% | 1.8 µg/mL (≈ 5.89 µM) | – | – | – | Cc1cc(C)n2ccc(C(=O)NC3CCc4ccccc43)c2n1 (stereo not shown) [III-216]
16 | 0.3 µg/mL (≈ 0.868 µM) | > 20% | > 60% | – | – | – | – | Cc1cc(C)n2ccc(C(=O)NC34CCC(CC3)c3ccccc34)c2n1 [III-126]
17 | 0.08 µg/mL (≈ 0.199 µM) | > 20% | > 60% | – | – | – | – | Cc1cc(C)n2ccc(C(=O)Nc3ccc4c(c3)C(Oc3cc(C)on3)CC4)c2n1 (stereo not shown) [III-96]
18 | – | < 10% | < 30% | 13.8 µg/mL (≈ 34.7 µM) | – | – | – | Cc1cc(C)n2ccc(C(=O)NC3CCCc4ccc(S(C)(=O)=O)cc43)c2n1 (stereo not shown) [III-230]
19 | 19.5 µg/mL (≈ 57.1 µM) | 10 to 20% | > 60% | – | – | – | – | Cc1cc(C)n2ccc(C(=O)NC3CCCCC34CCOCC4)c2n1 (stereo not shown) [III-184]
20 | 12.3 µg/mL (≈ 36 µM) | < 10% | 30 to 60% | – | – | – | – | Cc1cc(C)n2ccc(C(=O)NC3CCC(C4CCCO4)CC3)c2n1 (stereo not shown) [III-199]

The remaining lines, values behind:

Row | Compound | solubility [1] | activation at 0.1 µM [2] | activation at 1 µM [2] | solubility ([1]; in water) | Percent Gcase Activation, 0.1 μM Test Compound [2] | Compound Solubility in Water [1] | Percent Gcase Activation, 1 μM Test Compound [2]
21 | Cc1cc(C)n2ccc(C(=O)N[C@H]3CC[C@H](OCC(C)(C)C)CC3)c2n1 [III-93] | 6.2 µg/mL (≈ 17.3 µM) | > 20% | > 60% | – | – | – | –
22 | Cc1cc(C(F)F)nc2c(C(=O)Nc3ccc(-c4cocn4)cc3)ccn12 [III-30] | 0.06 µg/mL (≈ 0.163 µM) | > 20% | 30 to 60% | – | – | – | –
23 | CCCOC[C@H]1CC[C@H](NC(=O)c2ccn3c(C)cc(C)nc23)CC1 [III-114] | 1.3 µg/mL (≈ 3.78 µM) | > 20% | > 60% | – | – | – | –
24 | [2H]C1(NC(=O)c2ccn3c(COC)cc(C(C)C)nc23)CCOc2cc(F)c(F)cc21 (stereo not shown) [III-59] | 0.07 µg/mL (≈ 0.168 µM) | 10 to 20% | > 60% | – | – | – | –
25 | COCCCO[C@H]1CC[C@H](NC(=O)c2ccn3c(C)cc(C)nc23)CC1 [III-107] | 13.2 µg/mL (≈ 36.7 µM) | < 10% | < 30% | – | – | – | –
26 | C#Cc1cccc(C(C)(C)NC(=O)c2ccn3c(C)cc(COC)nc23)c1 [III-64] | 0.5 µg/mL (≈ 1.38 µM) | > 20% | > 60% | – | – | – | –
27 | CC[C@@H](NC(=O)c1ccn2c(C)cc(C)nc12)c1ccccc1 [III-124] | 1.2 µg/mL (≈ 3.9 µM) | > 20% | > 60% | – | – | – | –
28 | Cc1cc(C)n2ccc(C(=O)Nc3ccc(-c4cccs4)nc3)c2n1 [III-8] | 0.01 µg/mL (≈ 0.0287 µM) | > 20% | > 60% | – | – | – | –
29 | [2H]c1c(C([2H])([2H])[2H])nc2c(C(=O)NC(C)(C)c3ccc(F)cc3)cc([2H])n2c1C([2H])([2H])[2H] [III-160] | 1.6 µg/mL (≈ 4.8 µM) | > 20% | > 60% | – | – | – | –
30 | Cc1cc(C)n2ccc(C(=O)Nc3cnc(-c4ncccn4)c(Cl)c3)c2n1 [III-223] | – | < 10% | < 30% | 3.2 µg/mL (≈ 8.45 µM) | – | – | –
31 | Cc1cc(C)n2ccc(C(=O)Nc3ccc(-c4ccco4)cc3)c2n1 [III-276] | – | – | – | < 0.1 µg/mL | *** (greater than 20% Gcase activation) | – | +++ (Gcase activation greater than 60%)
32 | Cc1cc(C)n2ccc(C(=O)NC3(C)CCOc4cc(F)c(F)cc43)c2n1 (stereo not shown) [III-174] | 3.8 µg/mL (≈ 10.2 µM) | > 20% | > 60% | – | – | – | –
33 | Cc1ccnc2c(C(=O)NC3(C)CCOc4ccccc43)ccn12 (stereo not shown) [III-257] | – | 10 to 20% | > 60% | 28.9 µg/mL (≈ 89.9 µM) | – | – | –
34 | Cc1cc(C)n2ccc(C(=O)N[C@H]3CC[C@@H](OCC(C)(C)C)CC3)c2n1 [III-94] | 1.8 µg/mL (≈ 5.03 µM) | > 20% | > 60% | – | – | – | –
35 | Cc1cc(C)n2ccc(C(=O)NC3CCC4(CCCCO4)CC3)c2n1 (stereo not shown) [III-112] | 30.4 µg/mL (≈ 89 µM) | < 10% | – | – | – | – | –
36 | CCCO[C@H]1CC[C@H](NC(=O)c2ccn3c(C)cc(Cl)nc23)CC1 [III-74] | 10.8 µg/mL (≈ 30.9 µM) | > 20% | > 60% | – | – | – | –
37 | CCCCO[C@H]1CC[C@H](NC(=O)c2ccn3c(C)cc(F)nc23)CC1 [III-72] | 14.3 µg/mL (≈ 41.2 µM) | < 10% | 30 to 60% | – | – | – | –
38 | Cc1cc(C)n2ccc(C(=O)Nc3ccc(-c4ccco4)cc3)c2n1 [III-117] | – | > 20% | > 60% | – | – | 0.02 µg/mL | –
39 | Cc1cc(C)n2ccc(C(=O)N[C@H]3CC[C@H](OCC4CC(F)(F)C4)CC3)c2n1 [III-95] | 3.1 µg/mL (≈ 7.92 µM) | 10 to 20% | > 60% | – | – | – | –
40 | C#CCCCCO[C@H]1CC[C@H](NC(=O)c2ccn3c(C)cc(C)nc23)CC1 [III-208] | – | > 20% | > 60% | 0.8 µg/mL (≈ 2.18 µM) | – | – | –
41 | CCCCCO[C@H]1CC[C@@H](NC(=O)c2ccn3c(C)cc(C)nc23)CC1 [III-202] | – | > 20% | > 60% | 3.6 µg/mL (≈ 10.1 µM) | – | – | –
42 | Cc1cc(Br)n2ccc(C(=O)Nc3ccc(-c4cocn4)cc3)c2n1 [III-41] | 0.02 µg/mL (≈ 0.0503 µM) | < 10% | 30 to 60% | – | – | – | –
43 | Cc1cc(C)n2ccc(C(=O)Nc3ccc(OCCCCN)cc3)c2n1 [III-19] | 17.2 µg/mL (≈ 48.8 µM) | < 10% | < 30% | – | – | – | –
44 | COCc1cc(C(F)F)nc2c(C(=O)NC3(C)CCOc4cc(F)c(F)cc43)ccn12 (stereo not shown) [III-57] | 1.5 µg/mL (≈ 3.43 µM) | 10 to 20% | > 60% | – | – | – | –
